Measurements taken from patent US20200345725A1, “Methods and Compositions for Treating Cancer” (Omeros Corporation, priority 2019, published 2020).
pEC50: −log10 of the molar value. Values joined by “and” are separate entries in the source; they are usually repeats but may differ in a detail not shown here. Equal values may be shown once. Marks after values point to notes of the source that are not given here.

Assays:
Format in all cases: cell-based
[1] = target: T1, GPR174 (Homo sapiens, UniProt Q9BXC1); assay: CRE-Luc reporter Gs signaling assay with GPR174; design: host or cells: HEK293 or CHO cell lines (ATCC); conditions: for Gs pathway in the presence of GPR174 (CRE-Luc reporter): increasing concentrations of compound; for pEC50: multiple values = separate experiments
Target sequence in this assay (Q9BXC1 whole entry): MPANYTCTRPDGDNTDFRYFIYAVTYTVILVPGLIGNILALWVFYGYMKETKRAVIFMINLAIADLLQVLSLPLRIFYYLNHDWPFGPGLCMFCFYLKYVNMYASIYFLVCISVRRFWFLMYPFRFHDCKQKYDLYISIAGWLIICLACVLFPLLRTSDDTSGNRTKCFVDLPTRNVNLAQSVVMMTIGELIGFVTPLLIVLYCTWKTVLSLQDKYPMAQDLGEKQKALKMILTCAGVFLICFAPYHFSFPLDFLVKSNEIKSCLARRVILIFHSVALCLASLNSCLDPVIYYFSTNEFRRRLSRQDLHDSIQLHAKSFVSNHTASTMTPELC

[2] = target: T2, ADBR2 (Homo sapiens, UniProt P07550); assay: CRE-Luc reporter assay with control receptor ADBR2
T2 construct: host or cells: HEK293 or CHO cell lines (ATCC)
Method: The DNA/lipofectamine 2000 mix (3000 μL) was incubated at room temperature for 30 minutes and then added into a 10 cm culture dish (Corning, NY) containing 70-90% confluent cultured cells, (HEK293 or CHO cell lines (ATCC, VA)), in 15 mL of media. […] The cells were further incubated at 37° C. for various times. The media were removed and the cells lysed.
Compounds were tested in the reporter system with increasing concentrations of GPR174-interacting compounds.
The DNA/lipofectamine 2000 mix (3000 μL) was incubated at room temperature for 30 minutes and then added into a 10 cm culture dish (Corning, NY) containing 70-90% confluent cultured cells, typically HEK293 or CHO cell lines (ATCC, VA), in 15 mL of media. […] Media (26 mL) were added to the detached cells and 120 μL of transfected cells were transferred to each well on a 96-well plate. Increasing concentration of each compound in DMSO (1.2 μl) was added to the cells after plating into the 96-well plate. The cells were further incubated at 37° C. for various times. The media were removed, and the cells lysed.
ADBR2 is a GPCR, like GPR174, that activates the Gs signaling pathway.

[3] = target: T1, GPR174; assay: Cellular redistribution assay (CRA) for GPR174; conditions: multiple values = separate experiments
Text: One method for identifying compounds capable of modulating a receptor is using a cellular redistribution assay (“CRA”). Exemplary CRA methods are found in U.S. Pat. No. 7,309,576 issued to O'Dowd et al. and in O'Dowd et al., J. Biomol. Screen. 12:175-85,2007. […] Incorporation of the NLS alters the cellular localization of the GPCR, such that the majority of the NLS-modified receptor is present in the cell interior. An NLS-modified GPCR, when interacting with a functionally active compound, is mostly localized on the cell surface. Thus, it becomes possible to identify receptor modulators without knowledge of the endogenous ligand or a surrogate ligand.
The inventors have identified a number of compounds that inhibit GPR174 using a CRA assay similar to that described in U.S. Pat. No. 7,309,576 and in O'Dowd et al., J. Biomol. Screen. 12:175-85, 2007. These compounds are described in detail below.
The inventors used a CRA similar to that described in U.S. Pat. No. 7,309,576 and O'Dowd et al., J. Biomol. Screen. 12:175-85, 2007 to identify compounds that are capable of interacting with GPR174 using a library of approximately 370,000 chemical entities. Briefly described, the CRA assay described in U.S. Pat. No. 7,309,576 involves artificially inserting a NLS into the dopamine D1 receptor (DRD1), which allows the receptor to traffic from the cell membrane to the cell interior, and that the binding of antagonists to the receptor retained the receptor at the cell surface, while removal of the ligand allowed the receptor to continue to internalize from the cell surface. Both antagonists and agonists that selectively bound the receptor retained the receptor on the plasma membrane. GPR174 constructs were generated for use in a CRA-based compound screening assay. From this screen, the inventors initially identified compounds of formula I-VI, as described herein and included in Table 1.
Target sequence in this assay (Q9BXC1 1-292 limits assumed): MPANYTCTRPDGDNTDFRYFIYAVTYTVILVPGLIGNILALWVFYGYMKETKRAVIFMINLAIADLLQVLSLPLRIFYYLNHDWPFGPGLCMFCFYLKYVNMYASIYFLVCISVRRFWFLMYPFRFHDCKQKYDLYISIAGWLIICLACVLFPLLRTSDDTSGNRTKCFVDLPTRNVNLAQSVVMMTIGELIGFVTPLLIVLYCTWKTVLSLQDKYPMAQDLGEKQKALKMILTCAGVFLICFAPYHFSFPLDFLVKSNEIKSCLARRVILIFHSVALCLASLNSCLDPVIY

[4] = system: human PBMCs; assay: Th1 cytokines in supernatants of stimulated human PBMC, GPR174 inhibitor with adenosine pathway inhibitors (Examples 15, 18-22); conditions: donor 7
Method: Human PBMCs, obtained from a human volunteer donor, were dispensed at density of 1×10^6 cells/well in a 96-well flat-bottom plate and were stimulated in triplicate with 1 μg/mL anti-CD3 antibody (UCHT1) and 0.1 μg/mL anti-CD28 antibody (CD28.2) in the presence of:
Supernatants from these cells were collected at 24 hours post-stimulation and the levels of IFN-γ were determined by ELISA assay. Statistical analysis was carried out using one-way ANOVA with Tukey's post-hoc multiple comparison's correction.
Human PBMCs, obtained from a human volunteer donor (donor 1), were dispensed in X-vivo15 media (Lonza) supplemented with Glutamax, penicillin and streptomycin, at density of 1×10^6 cells/well in a 96-well flat-bottom plate and were stimulated with 1 μg/mL anti-CD3 antibody (UCHT1) and 0.1 μg/mL anti-CD28 antibody (CD28.2) in the presence of:
Supernatants from these cells were collected at 24 hours post-stimulation and the levels of IFN-γ, IL-2 and TNF were determined by ELISA assays.
Human PBMCs, obtained from two individual human volunteer donors (donor 2 and donor 3), were dispensed at density of 1×10^6 cells/well in a 96-well flat-bottom plate and were stimulated with 1 μg/mL anti-CD3 antibody (UCHT1) and 0.1 μg/mL anti-CD28 antibody (CD28.2) in the presence of:
Human PBMCs, obtained from twelve individual human volunteer donors were dispensed at density of 1×10^6 cells/well in a 96-well flat-bottom plate and were stimulated in triplicate with 1 μg/mL anti-CD3 antibody (UCHT1) and 0.1 μg/mL anti-CD28 antibody (CD28.2) in the presence of:
A total of 44 experiments using PBMC from 12 healthy donors were tested (9 donors for GM-CSF), with each donor tested in 1 to 8 separate experiments, depending on the donor (1 to 4 experiments each for GM-CSF). […] Cytokines were detected in supernatants with the Legendplex (Biolegend) or the MSB (MesoScale) platforms. […] One-way ANOVA with Tukey's post-hoc multiple comparisons correction was performed to identify significant differences (FC, mean fold change; ****, p<0.0001, ***, p<0.001; **, p<0.01; *, p<0.05, ns, not significant).
Human PBMC (1×10^6 cells/well in a 96-well flat-bottom plate) obtained from donor 3 and donor 6 were stimulated with 1 μg/mL anti-CD3 antibody (UCHT1) and 0.1 μg/mL anti-CD28 antibody (CD28.2) in the presence of:
Supernatants from these cells were collected at 24 hours post-stimulation and the levels of IFN-γ, IL-2, and TNF were determined with the MSD platform (MesoScale Discovery).
Human PBMC (1×10^6 cells/well in a 96-well flat-bottom plate) obtained from donor 7 were stimulated with 1 μg/mL […] (UCHT1) and 0.1 μg/mL anti-CD28 antibody (CD28.2) in the presence of:
Supernatants from these cells were collected at 24 hours post-stimulation and the levels of IFN-γ, IL-2, TNF and GM-CSF were determined with the MSD platform (MesoScale Discovery).
Supernatants from these cells were collected at 24 hours post-stimulation and the levels of IFN-γ, IL-2 and TNF were determined with the MSD platform (MesoScale Discovery).

[5] = high and low concentrations, ZM 0.1 μM
[6] = no ZM, 0.3 μM (compound 20: 3 μM)
[7] = no ZM, 1 μM (compound 20: 10 μM)
[8] = with ZM-241385 0.1 μM, 0.3 μM (compound 20: 3 μM)
[9] = with ZM-241385 0.1 μM, 1 μM (compound 20: 10 μM), label ZM = ZM alone

T2 sequence (P07550 whole entry): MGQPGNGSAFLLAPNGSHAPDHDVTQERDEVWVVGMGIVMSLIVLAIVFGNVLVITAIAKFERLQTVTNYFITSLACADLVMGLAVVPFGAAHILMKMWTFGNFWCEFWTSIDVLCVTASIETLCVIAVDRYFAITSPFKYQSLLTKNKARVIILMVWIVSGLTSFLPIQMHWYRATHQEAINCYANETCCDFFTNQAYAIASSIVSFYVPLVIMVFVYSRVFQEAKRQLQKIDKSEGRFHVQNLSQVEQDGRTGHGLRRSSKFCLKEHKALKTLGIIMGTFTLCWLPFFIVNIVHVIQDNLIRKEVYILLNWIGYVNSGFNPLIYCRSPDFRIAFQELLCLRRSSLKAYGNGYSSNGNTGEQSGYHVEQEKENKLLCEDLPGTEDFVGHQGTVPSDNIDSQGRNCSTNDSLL

Row | Gs pathway in the presence of GPR174 (CRE-Luc reporter) [1] | Gs pathway in the presence of ADBR2 (CRE-Luc reporter) [2] | Fold decrease in Gs signaling activity ([1]; pCRE-Luc reporter) [fold] | pEC50 ([1]; pCRE-Luc reporter) | pEC50 [3] | Compound | also measured
1 | inhibited | did not inhibit | 8.9 | 5.92 | – | CCCCOc1ccc(C2C3=C(CCCC3=O)NC3=C2C(=O)c2ccccc23)cc1 (stereo not shown) [compound 31] | –
2 | inhibited | did not inhibit | 8.3 | 5.59 | – | O=C1CCCC2=C1C(c1ccc3c(c1)OCCO3)C1=C(N2)c2ccccc2C1=O (stereo not shown) [compound 36] | –
3 | inhibited | did not inhibit | 4.3 | 5.18 | – | O=C1CCCC2=C1C(c1ccncc1)C1=C(N2)c2ccccc2C1=O (stereo not shown) [compound 42] | –
4 | inhibited | did not inhibit | 10.2 | 6.00 and 5.82 | – | COc1ccc(C2C3=C(CCCC3=O)NC3=C2C(=O)c2ccccc23)cc1 (stereo not shown) [compound 22] | –

The next lines start with the compound.

Row | Compound | Gs pathway in the presence of GPR174 (CRE-Luc reporter) [1] | Gs pathway in the presence of ADBR2 (CRE-Luc reporter) [2] | Fold decrease in Gs signaling activity ([1]; pCRE-Luc reporter) [fold] | pEC50 ([1]; pCRE-Luc reporter) | pEC50 [3] | also measured
5 | Cc1cc(Cc2ccc(NC(=O)c3cccs3)c(C)c2)ccc1NC(=O)c1cccs1 [compound 21] | did not modulate | did not modulate | – | – | – | Human GPR174 CRE Activity: nature of the compound (IA, antagonist, NM) ([1]; pCRE-Luc reporter): GPR174 antagonist or allosteric modulator
6 | CCCC(=O)N1CCN(c2cc(N3CCCCC3)c(F)cc2[N+](=O)[O-])CC1 [compound 5] | – | – | 2.4 | 6.05 | < 5.92 | –
7 | CCOC(=O)N1CCN(c2cc(N3CCCCC3)c(F)cc2[N+](=O)[O-])CC1 [compound 7] | inhibited | did not inhibit | 2.4 | 6.52 and 6.30 | < 6.15 | –
8 | O=[N+]([O-])c1cc(F)c(N2CCCCC2)cc1N1CCN(S(=O)(=O)c2ccccc2)CC1 [compound 11] | inhibited | did not inhibit | 3.1 | 6.30 and 5.89 and 6.22 | < 5.96 | synergy with ZM on GM-CSF (greater than the sum of the increases with each inhibitor alone) [4, 5]: synergized with ZM; synergy with ZM on IFN-γ (greater than the sum of the increases with each inhibitor alone) [4, 5]: synergized with ZM; synergy with ZM on IL-2 (greater than the sum of the increases with each inhibitor alone) [4, 5]: synergized with ZM; synergy with ZM on TNF (greater than the sum of the increases with each inhibitor alone) [4, 5]: synergized with ZM; GM-CSF, ratio relative to vehicle control [4, 6]: 2.9*; IFN-γ, ratio relative to vehicle control [4, 6]: 1.9*; IL-2, ratio relative to vehicle control [4, 6]: 1.4*; TNF, ratio relative to vehicle control [4, 6]: 1.7*; GM-CSF, ratio relative to vehicle control [4, 7]: 2.4*; IFN-γ, ratio relative to vehicle control [4, 7]: 1.8*; IL-2, ratio relative to vehicle control [4, 7]: 1.3; TNF, ratio relative to vehicle control [4, 7]: 1.7*; GM-CSF, ratio relative to vehicle control [4, 8]: 4.4*; IFN-γ, ratio relative to vehicle control [4, 8]: 2.9*; IL-2, ratio relative to vehicle control [4, 8]: 1.8*; TNF, ratio relative to vehicle control [4, 8]: 2.6*; GM-CSF, ratio relative to vehicle control [4, 9]: 4.9*; IFN-γ, ratio relative to vehicle control [4, 9]: 3.4*; IL-2, ratio relative to vehicle control [4, 9]: 1.9*; TNF, ratio relative to vehicle control [4, 9]: 3.0*
9 | CC(=O)N1CCN(c2cc(N3CCC(C)CC3)c(F)cc2[N+](=O)[O-])CC1 [compound 13] | – | – | 2.2 | 6.10 and 5.92 | < 5.70 | –
